The test system of one assay is VCaP cells. Description: Cellular growth inhibition assay for VCaP cells, CellTiter-Glo. The class given is cell-based, human. The conditions noted are these: 72 hours. Summed up: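 GI50 values come from four-parameter curve fits of luminescence data normalized to a zero baseline. Compound, in medium with 0.5% DMSO, was added one day after plating and left for 72 h before CellTiter-Glo 2.0 addition.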
Background: ATP-based viability assays read luminescence as a measure of living cells.

In the next assay the test system is T47D cells. The experiment in a line: Cellular Growth Inhibition Assay for T47D Cells (CellTiter-Glo). The format is cell-based, human. The conditions noted are these: 72 hours. An outline of the steps: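 GI50 values derive from four-parameter regression of CellTiter-Glo 2.0 luminescence, using zero luminescence as baseline. Human breast cancer T47D cells (3000/well; DMEM, 10% FBS, 0.2 units/mL insulin) were exposed for 72 h to compound dilutions at 0.5% DMSO, with dosing starting 24 h after seeding.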

One may read the GI50 as the concentration that inhibits growth by half.

Where only a bound is given, the exact number is not on record here.

In the assay on VCaP cells (Homo sapiens), `CCS(=O)(=O)Nc1ccc(Oc2cccc(CCOC3CCN(c4ncc(C(=O)N[C@H]5C(C)(C)[C@H](Oc6ccc(C#N)c(Cl)c6)C5(C)C)cn4)CC3)c2)c(-c2cn(C)c(=O)c3[nH]ccc23)c1` [Compound I-19] registered a GI50 of under 500 nM.

In the case of `CCS(=O)(=O)Nc1ccc(Oc2cccc(N3CC4(CN(CC5CCN(c6ncc(C(=O)N[C@H]7C(C)(C)[C@H](Oc8ccc(C#N)c(Cl)c8)C7(C)C)cn6)CC5)C4)C3)c2)c(-c2cn(C)c(=O)c3[nH]ccc23)c1` [Compound I-35, N-((1r, 3r)-3-(3-chloro-4-cyanophenoxy)-2,2,4,4-tetramethylcyclobutyl)-2-(4-((6-(3-(4-(ethylsulfonamido)-2-(6-methyl-7-oxo-6,7-dihydro-1H-pyrrolo[2,3-c]pyridin-4-yl)phenoxy)phenyl)-2,6-diazaspiro[3.3]heptan-2-yl)methyl)piperidin-1-yl)pyrimidine-5-carboxamide], the GI50 in the assay on VCaP cells (Homo sapiens) and with T47D cells (Homo sapiens) was under 500 nM in each case.

With `CCS(=O)(=O)Nc1ccc(Oc2cccc(OC3CCC4(CC3)CCN(c3ncc(C(=O)N[C@H]5C(C)(C)[C@H](Oc6ccc(C#N)c(Cl)c6)C5(C)C)cn3)CC4)c2)c(-c2cn(C)c(=O)c3[nH]ccc23)c1` [Compound I-45], the GI50 in the assay with VCaP cells (Homo sapiens) and with T47D cells (Homo sapiens) was under 500 nM in each case.

With `CCS(=O)(=O)Nc1ccc(Oc2cccc(OCCOC3CCN(c4ccc(C(=O)N[C@H]5C(C)(C)[C@H](Oc6ccc(C#N)c(Cl)c6)C5(C)C)cn4)CC3)c2)c(-c2cn(C)c(=O)c3[nH]ccc23)c1` [Compound I-70, N-((1r, 3r)-3-(3-chloro-4-cyanophenoxy)-2,2,4,4-tetramethylcyclobutyl)-6-(4-(2-(3-(4-(ethylsulfonamido)-2-(6-methyl-7-oxo-6,7-dihydro-1H-pyrrolo[2,3-c]pyridin-4-yl)phenoxy)phenoxy)ethoxy)piperidin-1-yl)nicotinamide], the GI50 in the assay on VCaP cells (Homo sapiens) and with T47D cells (Homo sapiens) was under 500 nM in each case.

Consider `CCS(=O)(=O)Nc1ccc(Oc2cccc(OCCOC3CCN(c4cnc(C(=O)N[C@H]5C(C)(C)[C@H](Oc6ccc(C#N)c(Cl)c6)C5(C)C)cn4)CC3)c2)c(-c2cn(C)c(=O)c3[nH]ccc23)c1` [Compound I-71, N-((1r, 3r)-3-(3-chloro-4-cyanophenoxy)-2,2,4,4-tetramethylcyclobutyl)-5-(4-(2-(3-(4-(ethylsulfonamido)-2-(6-methyl-7-oxo-6,7-dihydro-1H-pyrrolo[2,3-c]pyridin-4-yl)phenoxy)phenoxy)ethoxy)piperidin-1-yl)pyrazine-2-carboxamide], for which the GI50 in the assay with VCaP cells (Homo sapiens) and in the assay on T47D cells (Homo sapiens) was under 500 nM each time.

Turning to `Cn1cc(-c2cc(N)ccc2Oc2cccc(N3CC(N4CCN(c5ncc(C(=O)N[C@H]6C(C)(C)[C@H](Oc7ccc(C#N)c(Cl)c7)C6(C)C)cn5)CC4)C3)c2F)c2cc[nH]c2c1=O` [Compound I-93], the concentration for 50% growth inhibition (GI50) in the assay with VCaP cells (Homo sapiens) was under 500 nM; with T47D cells (Homo sapiens), 500 to 1500 nM.

Turning to `Cn1cc(-c2cc(N)ccc2Oc2cccc(OCCN3CCN(c4ncc(C(=O)N[C@H]5C(C)(C)[C@H](Oc6ccc(C#N)c(Cl)c6)C5(C)C)cn4)CC3)c2F)c2cc[nH]c2c1=O` [Compound I-100], the GI50 in the assay on VCaP cells (Homo sapiens) was under 500 nM; in the assay with T47D cells (Homo sapiens), 1500 to 3000 nM.

Turning to `Cn1cc(-c2cc(N)ccc2Oc2cccc(OCCC3CCN(c4ncc(C(=O)N[C@H]5C(C)(C)[C@H](Oc6ccc(C#N)c(Cl)c6)C5(C)C)cn4)CC3)c2)c2cc[nH]c2c1=O` [Compound I-101], the GI50 was under 500 nM with VCaP cells (Homo sapiens) and 500 to 1500 nM with T47D cells (Homo sapiens).

As for `CCS(=O)(=O)Nc1ccc(Oc2cccc(OC3CC(C4CCN(c5ncc(C(=O)N[C@H]6C(C)(C)[C@H](Oc7ccc(C#N)c(Cl)c7)C6(C)C)cn5)CC4)C3)c2)c(-c2cn(C)c(=O)c3[nH]ccc23)c1` (stereo partly shown) [Compound I-104], the GI50 with VCaP cells and in the assay with T47D cells was under 500 nM in each case.

With `CCS(=O)(=O)N(C)c1ccc(Oc2cccc(N3CCN(C4CN(c5ncc(C(=O)N[C@H]6C(C)(C)[C@H](Oc7ccc(C#N)c(Cl)c7)C6(C)C)cn5)C4)CC3)c2)c(-c2cn(C)c(=O)c3[nH]ccc23)c1` [Compound I-118], the GI50 with VCaP cells (Homo sapiens) and with T47D cells (Homo sapiens) was under 500 nM throughout.
